The record followed here is patent publication US12150996B2, “Polymeric prodrugs and subcutaneous and/or intramuscular administration thereof” (priority 2017, dated 2024).

The subject of one series is SC tissue. Kind of series: SC toxicity at the injection site (Example 10). The procedure:
The same studies were carried out with a polymer according to the invention coupled with Cyanine 5.5.

Series [1] in a line: Pharmacokinetics and biodistribution of radiolabelled PTX. The note with it: mice, liver, kidneys, spleen, lungs; radiolabel.
Experimental: 7 week old female BALB/c OlaHsd mice (˜22 g; Envigo, France) were used. […] Each group consisted of 40 mice divided into 10 different times (0.25 h, 0.5 h, 1 h, 2 h, 4 h, 7 h, 24 h, 48 h, 96 h and 144 h) leading to 4 mice per group. […] Livers, kidneys, spleens, lungs and some SC tissue at the injection site were also collected. All the samples were stored in a freezer (−20° C.) for a maximum of one week before analysis. For the radioactivity count, approximately 100 μl of plasma and 100 mg of each organ/tissue were removed and weighed with precision. The organs were first dissolved by adding 1 ml of soluble solution (PerkinElmer, USA) and the samples were placed overnight in an oven at 60° C. They were then whitewashed by twice adding 100 μL of 30% H2O2 (weight/volume) and heated for 30 min at 60° C. in an oven. Finally, the treated plasma and organ samples were mixed with Hionic-FluorUltimagold (PerkinElmer, USA) and the radioactivity was measured with a versatile LS 6500 scintillation counter (Beckman Coulter).
Pharmacokinetic and biodistribution studies were also conducted for the polyacrylamide compound containing paclitaxel. Paclitaxel was radiolabelled and coupled to the polymer by an ester link (stable link) so that it could be followed in the blood and in various organs (liver, lungs, kidneys, spleen, SC tissue). […]

Turning to `CC(=O)O[C@H]1C(=O)[C@@]2(C)[C@H]([C@H](OC(=O)c3ccccc3)[C@]3(O)C[C@H](OC(=O)[C@H](O)[C@@H](NC(=O)c4ccccc4)c4ccccc4)C(C)=C1C3(C)C)[C@]1(OC(C)=O)CO[C@@H]1C[C@@H]2O` [paclitaxel], the “Toxicity at the injection site” value with SC tissue (SC administration at 30 mg/kg (paclitaxel equivalent) once a day for 4 days, FIG. 12) is recorded as “local toxicity effects”. Moreover, the “Elimination (biodistribution)” value in series [1] is “predominantly hepatic elimination”.

Consider Cyanine 5.5, for which, in the series on SC tissue (in vivo, sc, 0.8 mg/kg), the “SC toxicity (necrosis of SC tissue)” value is “very necrotizing for SC tissue”.
